Laboratory results: patent US20250034135A1, “ANTI-APOPTOTIC PROTEIN BCL-2 INHIBITOR, PHARMACEUTICAL COMPOSITION AND USES THEREOF” (HANGZHOU HEALZEN THERAPEUTICS CO., LTD., priority 2021, published 2025)

What follows are molecules tested against BCL2 (Homo sapiens (Human), UniProt P10415) (assay: Molecular level activity test of anti-apoptotic protein BCL2 (HTRF, binding to Bim peptide)). Conditions: HTRF, binding of BCL2 to Bim peptide; read-out: BCL2 nM (inhibitory activity, IC50).
Description: The detection of the binding ability between anti-apoptotic protein BCL2 and pro-apoptotic protein Bim was performed using Homogeneous Time-Resolved Fluorescence technology. The reaction of this method occurred in a white shallow 384-well plate, with a total reaction volume of 10 μL. Specifically, it included 2 μL of the compound to be tested (2% DMSO), 4 μL His-tagged recombinant protein, and 4 μL Biotin-tagged BIM protein peptide. After 1 hour of reaction, 5 μL of each Anti-His and streptavidin-tagged XL665 antibody diluents diluted with a detection buffer were added. After incubating at room temperature for 4 hours, the values were read using the Envision multifunctional microplate reader to detect the effect of the compound to be tested on the binding ability of BCL2 to Bim protein peptides.

Sequence of BCL2 (P10415 whole entry): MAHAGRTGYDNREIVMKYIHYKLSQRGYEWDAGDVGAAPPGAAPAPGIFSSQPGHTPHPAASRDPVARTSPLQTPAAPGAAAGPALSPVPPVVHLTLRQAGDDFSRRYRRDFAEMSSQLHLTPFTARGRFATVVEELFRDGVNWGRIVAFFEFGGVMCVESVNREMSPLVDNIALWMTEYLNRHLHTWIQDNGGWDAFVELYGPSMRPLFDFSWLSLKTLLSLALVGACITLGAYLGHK

IC50, < 10 nM:
CC(C)c1ccccc1[C@@H]1CCCN1C1CC2(CCN(c3cc(Oc4cnc5[nH]ccc5c4)c(C(=O)NS(=O)(=O)c4cc([N+](=O)[O-])c(NCC5CCC(N(C)C)CC5)c5[nH]cnc45)cn3)CC2)C1 (stereo partly drawn) [compound 033, 4-((1H-pyrrolo[2,3-b]pyrid-5-yl)oxy)-N-((7-((((1S,4S)-4-(dimethylamino)cyclohexyl)methyl)amino)-6-nitro-1H-benzo[d]imidazol-4-yl)sulfonyl)-6-(2-((S)-2-(2-isopropylphenyl)pyrrolidin-1-yl)-7-azaspiro[3.5]non-7-yl) nicotinamide]
CC(C)c1ccccc1[C@@H]1CCCN1C1CC2(CCN(c3ccc(C(=O)NS(=O)(=O)c4cc([N+](=O)[O-])c(NC[C@H]5CC[C@](C)(O)CC5)c5c4OCO5)c(Oc4cnc5[nH]ccc5c4)c3)CC2)C1 [compound 158, 2-((1H-pyrrolo[2,3-b]pyrid-5-yl)oxy)-N-((7-((((1r, 4r)-4-hydroxy-4-methylcyclohexyl)methyl)amino)-6-nitrobenzo[d][1,3]dioxocyclopent-4-yl)sulfonyl)-4-(2-((S)-2-(2-isopropylphenyl)pyrrolidin-1-yl)-7-azaspiro[3.5]non-7-yl)benzamide]
CC(C)c1ccccc1[C@@H]1CCCN1C1CC2(CCN(c3ccc(C(=O)NS(=O)(=O)c4cc([N+](=O)[O-])c(NCC5(F)CCN(C6COC6)CC5)c5[nH]cnc45)c(N4CCOc5nc6[nH]ccc6cc54)c3)CC2)C1 [compound 080, (S)-2-(2,3-dihydropyrrolo[3′,2′:5,6]pyridino[2,3-b][1,4]oxazin-1 (6H)-yl)-N-((7-(((4-fluoro-1-(oxocyclobut-3-yl)piperid-4-yl)methyl)amino)-6-nitro-1H-benzo[d]imidazol-4-yl)sulfonyl)-4-(2-(2-(2-isopropylphenyl)pyrrolidin-1-yl)-7-azaspiro[3.5]non-7-yl)benzamide]
CC(C)c1ccccc1[C@@H]1CCCN1C1CC2(CCN(c3cc(Oc4cnc5[nH]ccc5c4)c(C(=O)NS(=O)(=O)c4cc([N+](=O)[O-])c(NCC5CCC(O)CC5)c5[nH]cnc45)cc3F)CC2)C1 (stereo partly drawn) [compound 016]
COc1ccc(CN2CCN(C3CC4(CCN(c5ccc(C(=O)NS(=O)(=O)c6cc([N+](=O)[O-])c(NC[C@H]7COCCO7)c7c6OCCO7)c(Oc6cnc7[nH]ccc7c6)c5)CC4)C3)[C@H](c3ccccc3C(C)C)C2)cc1 [compound 183, N-((8-((((S)-1,4-dioxan-2-yl)methyl)amino)-7-nitro-2,3-dihydrobenzo[b][1,4]dioxan-5-yl)sulfonyl)-2-((1H-pyrrolo[2,3-b]pyrid-5-yl)oxy)-4-(2-((R)-2-(2-isopropylphenyl)-4-(4-methoxybenzyl)piperazin-1-yl)-7-azaspiro[3.5]non-7-yl)benzamide]
CC(C)c1ccccc1[C@@H]1CCCN1C1CC2(CCN(c3cc(Oc4cnc5[nH]ccc5c4)c(C(=O)NS(=O)(=O)c4cc([N+](=O)[O-])c(NCC5(F)CCOCC5)c5ocnc45)cc3F)CC2)C1 [compound 103, (S)-2-((1H-pyrrolo[2,3-b]pyrid-5-yl)oxy)-5-fluoro-N-((7-(((4-fluorotetrahydro-2H-pyran-4-yl)methyl)amino)-6-nitrobenzo[d]oxazol-4-yl)sulfonyl)-4-(2-(2-(2-isopropylphenyl)pyrrolidin-1-yl)-7-azaspiro[3.5]non-7-yl)benzamide]
COc1ccc(CN2CCN(C3CC4(C3)CN(c3cc(Oc5cnc6[nH]ccc6c5)c(C(=O)NS(=O)(=O)c5cc([N+](=O)[O-])c(NC[C@H]6CC[C@](C)(O)CC6)c6[nH]cnc56)cc3F)C4)C(c3ccccc3C(C)C)C2)cc1 (stereo partly drawn) [compound 072, 2-((1H-pyrrolo[2,3-b]pyrid-5-yl)oxy)-5-fluoro-N-((7-((((1r,4r)-4-hydroxy-4-methylcyclohexyl)methyl)amino)-6-nitro-1H-benzo[d]imidazol-4-yl)sulfonyl)-4-(6-(2-(2-isopropylphenyl)-4-(4-methoxybenzyl)piperazin-1-yl)-2-azaspiro[3.3]hept-2-yl)benzamide]
CC(C)c1ccccc1[C@@H]1CCCN1C1CC2(CCN(c3cc(Oc4cnc5[nH]ccc5c4)c(C(=O)NS(=O)(=O)c4cc([N+](=O)[O-])c(NC[C@H]5CC[C@](C)(O)CC5)c5c4OCCO5)cc3F)CC2)C1 [compound 099, 2-((1H-pyrrolo[2,3-b]pyrid-5-yl)oxy)-5-fluoro-N-((8-((((1r, 4r)-4-hydroxy-4-methylcyclohexyl)methyl)amino)-7-nitro-2,3-dihydrobenzo[b][1,4]dioxan-5-yl)sulfonyl)-4-(2-((S)-2-(2-isopropylphenyl)pyrrolidin-1-yl)-7-azaspiro[3.5]non-7-yl)benzamide]
COc1cc(CN2CCN(C3CC4(CCN(c5cc(Oc6cnc7[nH]ccc7c6)c(C(=O)NS(=O)(=O)c6ccc(NC[C@H]7CC[C@](C)(O)CC7)c([N+](=O)[O-])c6)cc5F)CC4)C3)[C@H](c3ccccc3C(C)C)C2)ccc1C1CC1 [compound 220, 2-((1H-pyrrolo[2,3-b]pyrid-5-yl)oxy)-4-(2-((R)-4-(4-cyclopropyl-3-methoxybenzyl)-2-(2-isopropylphenyl)piperazin-1-yl)-7-azaspiro[3.5]non-7-yl)-5-fluoro-N-((4-((((1r, 4r)-4-hydroxy-4-methylcyclohexyl)methyl)amino)-3-nitrophenyl)sulfonyl)benzamide]
COc1ccc(CN2CCN(C3CC4(CCN(c5cc(Oc6cnc7[nH]ccc7c6)c(C(=O)NS(=O)(=O)c6cc([N+](=O)[O-])c(NC[C@H]7CC[C@](C)(O)CC7)c7scnc67)cn5)CC4)C3)[C@H](c3ccccc3C(C)C)C2)cc1 [compound 140, 4-((1H-pyrrolo[2,3-b]pyrid-5-yl)oxy)-N-((7-((((1r, 4r)-4-hydroxy-4-methylcyclohexyl)methyl)amino)-6-nitrobenzo[d]thiazol-4-yl)sulfonyl)-6-(2-((R)-2-(2-isopropylphenyl)-4-(4-methoxybenzyl)piperazin-1-yl)-7-azaspiro[3.5]non-7-yl) nicotinamide]
CC(C)c1ccccc1[C@@H]1CN(Cc2c(F)cccc2F)CCN1C1CC2(CCN(c3ccc(C(=O)NS(=O)(=O)c4cc([N+](=O)[O-])c(NC[C@H]5CC[C@](C)(O)CC5)c5c4OCO5)c(Oc4cnc5[nH]ccc5c4)c3)CC2)C1 [compound 177, 2-((1H-pyrrolo[2,3-b]pyrid-5-yl)oxy)-4-(2-((R)-4-(2,6-difluorobenzyl)-2-(2-isopropylphenyl)piperazin-1-yl)-7-azaspiro[3.5]non-7-yl)-N-((7-((((1r, 4r)-4-hydroxy-4-methylcyclohexyl)methyl)amino)-6-nitrobenzo[d][1,3]dioxocyclopent-4-yl)sulfonyl)benzamide]
CC(C)c1ccccc1[C@@H]1CN(Cc2cccc3c2OCCO3)CCN1C1CC2(CCN(c3cc(Oc4cnc5[nH]ccc5c4)c(C(=O)NS(=O)(=O)c4ccc(NCC5(F)CCOCC5)c([N+](=O)[O-])c4)cc3F)CC2)C1 [compound 208, (R)-2-((1H-pyrrolo[2,3-b]pyrid-5-yl)oxy)-4-(2-(4-((2,3-dihydrobenzo[b][1,4]dioxan-5-yl)methyl)-2-(2-isopropylphenyl)piperazin-1-yl)-7-azaspiro[3.5]non-7-yl)-5-fluoro-N-((4-(((4-fluorotetrahydro-2H-pyran-4-yl)methyl)amino)-3-nitrophenyl)sulfonyl)benzamide]
CC(C)c1ccccc1[C@@H]1CCCN1C1CC2(CCN(c3cc(Oc4cnc5[nH]ccc5c4)c(C(=O)NS(=O)(=O)c4cc([N+](=O)[O-])c(NC[C@H]5COCCO5)c5c4OCO5)cc3F)CC2)C1 [compound 157, N-((7-((((S)-1,4-dioxan-2-yl)methyl)amino)-6-nitrobenzo[d][1,3]dioxocyclopent-4-yl)sulfonyl)-2-((1H-pyrrolo[2,3-b]pyrid-5-yl)oxy)-5-fluoro-4-(2-((S)-2-(2-isopropylphenyl)pyrrolidin-1-yl)-7-azaspiro[3.5]non-7-yl)benzamide]
COc1ccc(CN2CCN(C3CC4(CCN(c5cc(Oc6cnc7[nH]ccc7c6)c(C(=O)NS(=O)(=O)c6cc([N+](=O)[O-])c(NCC7(F)CCOCC7)c7n[nH]c(=O)cc67)cc5F)CC4)C3)[C@H](c3ccccc3C(C)C)C2)cc1 [compound 141, (R)-2-((1H-pyrrolo[2,3-b]pyrid-5-yl)oxy)-5-fluoro-N-((8-(((4-fluorotetrahydro-2H-pyran-4-yl)methyl)amino)-7-nitro-3-oxo-2,3-misoline-5-yl)sulfonyl)-4-(2-(2-(2-isopropylphenyl)-4-(4-methoxybenzyl)piperazin-1-yl)-7-azaspiro[3.5]non-7-yl)benzamide]
COc1ccc(CN2CCN(C3CC4(CCN(c5ccc(C(=O)NS(=O)(=O)c6cc([N+](=O)[O-])c(NC[C@H]7CC[C@](C)(O)CC7)c7[nH]cnc67)c(Oc6cnc7[nH]ccc7c6)c5)CC4)C3)C(c3ccccc3C(C)C)C2)cn1 (stereo partly drawn) [compound 045, 2-((1H-pyrrolo[2,3-b]pyrid-5-yl)oxy)-N-((7-((((1r,4r)-4-hydroxy-4-methylcyclohexyl)methyl)amino)-6-nitro-1H-benzo[d]imidazol-4-yl)sulfonyl)-4-(2-(2-(2-isopropylphenyl)-4-((6-methoxypyrid-3-yl)methyl)piperazin-1-yl)-7-azaspiro[3.5]non-7-yl)benzamide]
